These are literature values, as cited in patent US20250312496A1, “PROSTATE SPECIFIC MEMBRANE ANTIGEN (PSMA) LIGANDS” (Deutsches Krebsforschungszentrum Stiftung des öffentlichen …, priority 2022, published 2025).

The data set concerns prostate cancer.

Regarding `O=C(O)CC[C@H](NC(=O)N[C@@H](CCCCNC(=O)[C@H](Cc1ccc2ccccc2c1)NC(=O)[C@H]1CC[C@H](CNC(=O)CN2CCN(CC(=O)O)CCN(CC(=O)O)CCN(CC(=O)O)CC2)CC1)C(=O)O)C(=O)O` [225Ac-PSMA-617, metal not drawn], the PSA value entry (both patients) is recorded as “fell below the detectability limit”. The response of patients entry (two patients with extremely advanced and end-stage disease) is on record as “complete remission”.
